The results in this text go back to PMC11435058, “Synthesis of New Thiazole-Privileged Chalcones as Tubulin Polymerization Inhibitors with Potential Anticancer Activities” (Pharmaceuticals, 2024).

In one assay the test system is PC-3. The assay can be described thus: NCI-60 anticancer screen (SRB; single dose and five doses). The conditions noted are these: Homo sapiens, PC-3, 48 h, read-out: Growth Percentage.
The subject of a further assay is ACHN. Described as above. The conditions noted are these: Homo sapiens, 48 h, read-out: Growth Percentage.
For another assay, the system named is RXF 393. The assay is described as above. Particulars: Homo sapiens, RXF 393, 48 h, read-out: Growth Percentage.
The subject of another assay is MOLT-4. Described as above. The conditions noted are these: Homo sapiens, MOLT-4, 48 h, read-out: Growth Percentage.
The next assay concerns SK-MEL-28. The description is as above. Particulars: Homo sapiens, SK-MEL-28, 48 h, read-out: Growth Percentage.
The next assay deals with OVCAR-8. The description is as above. The conditions noted are these: Homo sapiens, OVCAR-8, 48 h, read-out: Growth Percentage.
The test system of assay [1] is 60 human tumor cell lines panel. Nature of the assay: NCI-60 anticancer screen, whole panel (means and ranges over the cell lines). Format: cell-based. The conditions noted are these: Homo sapiens, 48 h.
The next assay concerns NCI-H460. Nature of the assay: NCI-60 anticancer screen (SRB; single dose and five doses). Particulars: Homo sapiens, NCI-H460, 48 h, read-out: Growth Percentage.
The subject of the next assay is MDA-MB-468. The description is as above. Particulars: Homo sapiens, 48 h; MDA-MB-468; dose of 10 μM; read-out: Growth Percentage. Format: cell-based, human. As for the experimental part: The methodology of the NCI anticancer screening has been described in detail elsewhere (http://www.dtp.nci.nih.gov). For detailed information, see Appendix A in the Supplementary Materials.
4.2.1. Screening of the anticancer activity against a panel of 60 cell Lines.
The methodology of the NCI anticancer screening has been described in detail elsewhere (http://www.dtp.nci.nih.gov.) Briefly, the primary anticancer assay was performed at approximately 60 human tumor cell lines panel derived from nine neoplastic diseases, in accordance with the protocol of the Drug Evaluation Branch, National Cancer Institute, Bethesda. Tested compounds were added to the culture at a single concentration (10μM) and the cultures were incubated for 48 h. End -point determinations were made with a protein binding dye, SRB. Results for each tested compound was reported as the percent of growth of the treated cells when compared to the untreated control cells. The percentage growth was evaluated spectrophotometrically versus controls not treated with test agents. […]

The test system of the next assay is A498. Described as above. Particulars: Homo sapiens, A498, 48 h, read-out: Growth Percentage, A498; dose of 10 μM.
Another assay deals with NCI-H226. The description is as above. Particulars: Homo sapiens, NCI-H226, 48 h, read-out: Growth Percentage.
The next assay relates to HCC-2998. The assay is described as above. The conditions noted are these: Homo sapiens, HCC 2998, 48 h, read-out: Growth Percentage.
The next assay concerns MALME-3M. The assay is described as above. Particulars: Homo sapiens, 48 h, read-out: Growth Percentage.
A further assay relates to RPMI-8226. Described as above. The conditions noted are these: Homo sapiens, RPMI-8226, 48 h, read-out: Growth Percentage.
For a further assay, the system named is SNB-19. The assay can be described thus: cells. The conditions noted are these: Homo sapiens, SNB-19, 48 h, read-out: Growth Percentage.
The subject of a further assay is A549/ATCC. The assay can be described thus: NCI-60 anticancer screen (SRB; single dose and five doses). The conditions noted are these: Homo sapiens, A549, 48 h, read-out: Growth Percentage.
Another assay has as its system NCI-H322M. Described as above. Particulars: Homo sapiens, 48 h, read-out: Growth Percentage.
A further assay deals with NCI/ADR-RES. The assay is described as above. Particulars: Homo sapiens, 48 h, read-out: Growth Percentage.
Another assay has as its system BT-549. Described as above. Particulars: Homo sapiens, BT-549, 48 h, read-out: Growth Percentage.
Another assay concerns NCI-H522. Described as above. Particulars: Homo sapiens, NCI-H522, 48 h, read-out: Growth Percentage.
The test system of another assay is HCT-116. Described as above. The conditions noted are these: Homo sapiens, HCT-116, 48 h, read-out: Growth Percentage.
The next assay relates to HOP-92. The description is as above. The conditions noted are these: Homo sapiens, HOP-92, 48 h, read-out: Growth Percentage.
A further assay concerns HOP-62. Described as above. The conditions noted are these: Homo sapiens, HOP-62, 48 h, read-out: Growth Percentage.
In another assay the test system is COLO 205. The assay is described as above. Particulars: Homo sapiens, COLO 205, 48 h, read-out: Growth Percentage.
For another assay, the system named is SK-OV-3. The description is as above. The conditions noted are these: Homo sapiens, SK-OV-3, 48 h, read-out: Growth Percentage.
[2] abbreviates: mean over the tested cell lines, dose of 10 μM, read-out: Mean growth percentage.
The mark [3] stands for this setting: range over the cell lines, dose of 10 μM, read-out: growth percentages against most of the tested cells (lowest to highest).
Where [4] appears, read: read-out: growth percentages against most of the tested cells (lowest to highest).

Read-outs that look alike come from different tables or passages of the source.

As to `Cc1[nH]c(=S)sc1C(=O)/C=C/c1ccccc1` [2a, (E)-1-(4-Methyl-2-Thioxo-2,3-Dihydrothiazol-5-yl)-3-Phenylprop-2-En-1-One], the activity at 10 µM turned out to be 77.6% in the assay on PC-3; 71.8% in the assay with ACHN; 46.4% in the assay with RXF 393; 74.2% in the assay with MOLT-4; 85.2% with SK-MEL-28; 65.8% with OVCAR-8. In addition, the activity at 10 µM in assay [1] (setting [2]) was 65%; in [1] (setting [3]), 14.1 to 129%; in the assay on NCI-H460 it was 56.7%; in the assay on MDA-MB-468, 20.8%; with A498, 106%; in the assay with NCI-H226, 96.5%. The activity at 10 µM in the assay with HCC-2998 is 91.3%; with MALME-3M, 87.8%; in the assay with RPMI-8226, 14.1%; in the assay with SNB-19, 66.8%; in the assay on A549/ATCC, 82.3%; in the assay with NCI-H322M, 66.5%. In addition, the activity at 10 µM in the assay with NCI/ADR-RES turned out to be 64.8%; with BT-549, 68.8%; with NCI-H522 it was 71.7%; with HCT-116 it was 49.4%; in the assay with HOP-92, 89.6%.
Regarding `Cc1[nH]c(=S)sc1C(=O)/C=C/c1cccc(F)c1` [2b, (E)-3-(3-Fluorophenyl)-1-(4-Methyl-2-Thioxo-2,3-Dihydrothiazol-5-yl)Prop-2-En-1-One], the activity at 10 µM in the assay on PC-3 worked out at 54.7%; in the assay on ACHN, 56%; in the assay on RXF 393 it was 23.2%; in the assay with MOLT-4, 43.6%; in the assay on SK-MEL-28, 93.7%; with OVCAR-8 it was 60.5%. Further, the activity at 10 µM is -22.7 to 106% in assay [1] (setting [4]); 47.5% in assay [1] (setting [2]); 43.2% in the assay with NCI-H460; 34.8% with HOP-62; -22.7% in the assay on MDA-MB-468; 106% in the assay on A498. In addition, the activity at 10 µM in the assay with NCI-H226 is 85.7%; in the assay on HCC-2998, 58.2%; with COLO 205 it was 94.5%; in the assay with MALME-3M it was 101%; in the assay on RPMI-8226, 15.2%; with SNB-19, 44%. Besides, the activity at 10 µM was 76.4% with A549/ATCC; 84.5% in the assay with NCI-H322M; 10.8% in the assay with NCI/ADR-RES; 65.7% in the assay with BT-549; 111% in the assay on SK-OV-3; 63.9% in the assay on NCI-H522. In the assay on HCT-116, the activity at 10 µM came out at 21.2%.
As for `Cc1[nH]c(=S)sc1C(=O)/C=C/c1ccccc1Cl` [2d, (E)-3-(2-Chlorophenyl)-1-(4-Methyl-2-Thioxo-2,3-Dihydrothiazol-5-yl)Prop-2-En-1-One], the activity at 10 µM in the assay on PC-3 turned out to be 71.8%; with ACHN, 93.4%; in the assay with RXF 393, 93.8%; in the assay on MOLT-4, 84.2%; with SK-MEL-28 it was 101%; with OVCAR-8 it was 85.4%. The activity at 10 µM is 79.4% in [1] (setting [2]); 14.1 to 116% in assay [1] (setting [3]); 82.2% in the assay with NCI-H460; 91.7% in the assay on HOP-62; 30.8% in the assay on MDA-MB-468; 116% with A498. For the same compound, the activity at 10 µM is 89.6% with NCI-H226; 132% with HCC-2998; 118% in the assay with COLO 205; 105% in the assay with MALME-3M; 28.6% in the assay on RPMI-8226; 85.2% with SNB-19. The activity at 10 µM in the assay on A549/ATCC was 87.6%; in the assay with NCI-H322M, 106%; with NCI/ADR-RES, 88.8%; in the assay with BT-549, 76.8%; in the assay on SK-OV-3, 118%; with NCI-H522, 90.1%. Besides, the activity at 10 µM in the assay with HCT-116 worked out at 44.6%.
As to `COc1ccc(/C=C/C(=O)c2sc(=S)[nH]c2C)cc1` [2l, (E)-3-(4-Methoxyphenyl)-1-(4-Methyl-2-Thioxo-2,3-Dihydrothiazol-5-yl)Prop-2-En-1-One], the activity at 10 µM with PC-3 worked out at 82.2%; with ACHN, 85.6%; in the assay on RXF 393 it was 77.5%; in the assay on MOLT-4, 81.5%; in the assay with SK-MEL-28, 102%; in the assay with OVCAR-8 it was 76.9%. For the same compound, the activity at 10 µM in assay [1] (setting [4]) is 15.1 to 120%; in [1] (setting [2]), 74.6%; with NCI-H460, 85.6%; in the assay with MDA-MB-468 it was 15.1%; with A498, 120%; in the assay with NCI-H226 it was 93.6%. The activity at 10 µM worked out at 101% with HCC-2998; 90% in the assay on MALME-3M; 19.6% with RPMI-8226; 75.6% in the assay on SNB-19; 82.9% in the assay on A549/ATCC; 92.4% with NCI-H322M. In addition, the activity at 10 µM in the assay on NCI/ADR-RES came out at 76.4%; in the assay on BT-549, 75%; with NCI-H522, 61.4%; in the assay on HCT-116, 76%; in the assay on HOP-92 it was 101%.
As to `COc1ccc(/C=C/C(=O)c2sc(=S)[nH]c2C)c(OC)c1` [2n, (E)-3-(2,4-Dimethoxyphenyl)-1-(4-Methyl-2-Thioxo-2,3-Dihydrothiazol-5-yl)Prop-2-En-1-One], the activity at 10 µM in the assay with PC-3 came to 75.7%; in the assay with ACHN, 77%; in the assay on RXF 393, 68.9%; in the assay on MOLT-4 it was 72.3%; in the assay on SK-MEL-28, 92.8%; in the assay with OVCAR-8, 81.5%. In addition, the activity at 10 µM is 19.2 to 123% in assay [1] (setting [4]); 75.1% in assay [1] (setting [2]); 89.8% with NCI-H460; 88.8% in the assay with HOP-62; 19.2% with MDA-MB-468; 101% with A498. For the same compound, the activity at 10 µM was found to be 79.7% in the assay with NCI-H226; 80.7% in the assay with HCC-2998; 123% with COLO 205; 35.6% in the assay on RPMI-8226; 77.4% in the assay on SNB-19; 90% in the assay on A549/ATCC. Besides, the activity at 10 µM stood at 48% with NCI/ADR-RES; 59.8% in the assay on BT-549; 101% in the assay with SK-OV-3; 73.5% with NCI-H522; 62.3% in the assay on HCT-116; 103% in the assay with HOP-92.
